According to BindingDB's records for patent US20230399319 (Japan Tobacco, 2023):

target: NACHT, LRR and PYD domains-containing protein 3 (Homo sapiens, UniProt Q96P20); test: Evaluation of NLRP3 Inflammasome Inhibitory Activity Assay
Protocol: The NLRP3 inflammasome inhibitory activity of test compounds were evaluated CM the basis of the inhibitory activity of the IL-1β, production in THP1-Null cells (Product Number: thp-null, InvivoGen). […] A solution containing a test compound (20 μL/well) was added to test compound-setting wells. […] The supernatant of the culture was cryonically stored (set at −20° C.) until measurement of IL-1β.

Chain of NACHT, LRR and PYD domains-containing protein 3 (Q96P20 whole entry, the tested form may be a part): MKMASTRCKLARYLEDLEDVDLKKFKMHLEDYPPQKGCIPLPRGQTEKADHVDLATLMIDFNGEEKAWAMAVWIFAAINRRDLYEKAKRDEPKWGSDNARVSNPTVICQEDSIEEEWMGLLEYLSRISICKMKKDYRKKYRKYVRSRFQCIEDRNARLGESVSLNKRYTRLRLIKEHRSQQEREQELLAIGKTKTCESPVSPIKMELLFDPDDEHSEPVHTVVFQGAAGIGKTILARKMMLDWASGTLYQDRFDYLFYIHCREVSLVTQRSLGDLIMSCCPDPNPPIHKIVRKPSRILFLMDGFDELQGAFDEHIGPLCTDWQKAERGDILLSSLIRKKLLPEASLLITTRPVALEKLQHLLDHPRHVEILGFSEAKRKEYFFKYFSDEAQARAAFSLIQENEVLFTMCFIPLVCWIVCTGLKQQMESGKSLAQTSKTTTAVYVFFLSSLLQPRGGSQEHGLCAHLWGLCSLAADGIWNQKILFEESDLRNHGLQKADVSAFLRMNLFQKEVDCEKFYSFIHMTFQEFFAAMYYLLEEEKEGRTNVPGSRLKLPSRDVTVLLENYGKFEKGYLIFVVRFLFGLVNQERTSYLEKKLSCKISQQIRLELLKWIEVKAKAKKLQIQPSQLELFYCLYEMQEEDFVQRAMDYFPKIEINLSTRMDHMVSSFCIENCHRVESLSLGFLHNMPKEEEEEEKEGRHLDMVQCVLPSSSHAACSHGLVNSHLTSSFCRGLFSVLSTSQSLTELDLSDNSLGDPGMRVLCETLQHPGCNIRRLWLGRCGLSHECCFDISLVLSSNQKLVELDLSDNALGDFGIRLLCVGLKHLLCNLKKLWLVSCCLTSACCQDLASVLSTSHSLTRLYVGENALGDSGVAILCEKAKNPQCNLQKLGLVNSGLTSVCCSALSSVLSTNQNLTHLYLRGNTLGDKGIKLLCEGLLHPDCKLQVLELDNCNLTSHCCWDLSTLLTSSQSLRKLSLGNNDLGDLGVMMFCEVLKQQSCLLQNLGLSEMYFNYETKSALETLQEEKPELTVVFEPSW

| SMILES | IC50 [nM] |
| --- | --- |
| CCOC[C@@H]1CCCN1S(=O)(=O)NC(=O)c1coc(Nc2cc(C)ccc2C)n1 [US20230399319, Example 2-314] | 210 |
| CC(C)c1ccc(C(F)(F)F)cc1Nc1nc(C(=O)NS(=O)(=O)N2CCCOCC2)co1 [US20230399319, Example 2-072] | 27 |
| Cc1cc(Cl)c(C(C)C)cc1Nc1nc(C(=O)NS(=O)(=O)N(C)C)co1 [US20230399319, Example 2-027] | 34 |
| Cc1ccc(C(F)(F)F)cc1Nc1nc(C(=O)NS(=O)(=O)N2CCCC(C#N)CC2)co1 (stereo not drawn) [US20230399319, Example 2-141] | 9.7 |
| Cc1cn(C2CCCC2)nc1Nc1nc(C(=O)NS(=O)(=O)N2CCCOCC2)co1 [US20230399319, Example 2-153] | 2300 |
| COCC1COCCN(S(=O)(=O)NC(=O)c2coc(Nc3cc(C(F)(F)F)ccc3C)n2)C1 (stereo not drawn) [US20230399319, Example 2-151] | 64 |
| CCCS(=O)(=O)C1CCCN(S(=O)(=O)NC(=O)c2coc(Nc3cc(C)ccc3C(C)C)n2)CC1 (stereo not drawn) [US20230399319, Example 2-311] | 18 |
| Cc1c(Nc2nc(C(=O)NS(=O)(=O)N(C)C)co2)cc(C(F)(F)F)cc1C(F)(F)F [US20230399319, Example 2-041] | 340 |
| Cc1ccc(C(F)(F)F)cc1Nc1nc(C(=O)NS(=O)(=O)N2CCC(c3ccccc3)CC2)co1 [US20230399319, Example 2-282] | 2500 |
| Cc1ccc(C(F)(F)F)cc1Nc1nc(C(=O)NS(=O)(=O)N2CCOCC(F)(F)C2)co1 [US20230399319, Example 2-190] | 17 |
| Cc1ccc(C(F)(F)F)cc1Nc1nc(C(=O)NS(=O)(=O)N2CCC2C)co1 (stereo not drawn) [US20230399319, Example 2-078] | 100 |
| CCCS(=O)(=O)C1CCCN(S(=O)(=O)NC(=O)c2coc(Nc3nn(C(C)C)cc3C)n2)CC1 (stereo not drawn) [US20230399319, Example 2-302] | 36 |
| CC1(C)CCN(S(=O)(=O)NC(=O)c2coc(Nc3c4c(c(F)c5c3CCC5)CCC4)n2)C1 [US20230399319, Example 2-009] | 380 |
| CCOCC1CCN(S(=O)(=O)NC(=O)c2coc(Nc3cc(C(C)C)c(F)cc3C)n2)CCO1 (stereo not drawn) [US20230399319, Example 2-337] | 13 |
| Cc1ccc(C(F)(F)F)cc1Nc1nc(C(=O)NS(=O)(=O)N(C)CCS(C)(=O)=O)co1 [US20230399319, Example 2-280] | 420 |
| Cc1ccc(C(F)(F)F)cc1Nc1nc(C(=O)NS(=O)(=O)N2CCCC(=O)CC2)co1 [US20230399319, Example 2-149] | 32 |
| Cc1ccc(C(C)CC#N)cc1Nc1nc(C(=O)NS(=O)(=O)N(C)C)co1 (stereo not drawn) [US20230399319, Example 2-096] | 1800 |
| Cc1ccc(C(F)(F)F)cc1Nc1nc(C(=O)NS(=O)(=O)N2CCC[C@@H]2C(=O)N(C)C)co1 [US20230399319, Example 2-080] | 930 |
| Cc1ccc(C(F)(F)F)cc1Nc1nc(C(=O)NS(=O)(=O)N2CCCC2C)co1 (stereo not drawn) [US20230399319, Example 2-174] | 55 |
| Cc1ccc(C(F)(F)F)cc1Nc1nc(C(=O)NS(=O)(=O)N2CCC(C#N)CC2)co1 [US20230399319, Example 2-109] | 38 |
| Cc1ccc(C(F)(F)F)cc1Nc1nc(C(=O)NS(=O)(=O)N(Cc2ccccc2)C(C)C)co1 [US20230399319, Example 2-207] | 180 |

| SMILES | IC50 [nM] |
| --- | --- |
| CCCCS(=O)(=O)N1CCN(S(=O)(=O)NC(=O)c2coc(Nc3cc(C(F)(F)F)ccc3C)n2)CC1 [US20230399319, Example 2-247] | 22 |
| Cc1ccc(C(F)(F)F)cc1Nc1nc(C(=O)NS(=O)(=O)N2CCCS(=O)(=O)CC2)co1 [US20230399319, Example 2-239] | 170 |
| CC(C)c1nn(C(C)C)cc1Nc1nc(C(=O)NS(=O)(=O)N2CCCC(C#N)CC2)co1 (stereo not drawn) [US20230399319, Example 2-191] | 350 |
| CCCS(=O)(=O)C1CCCN(S(=O)(=O)NC(=O)c2coc(Nc3nc(C(F)(F)F)ccc3C(C)C)n2)CC1 (stereo not drawn) [US20230399319, Example 2-315] | 85 |
| CCCCC1(C#N)CCCN(S(=O)(=O)NC(=O)c2coc(Nc3cc(C(F)(F)F)ccc3C)n2)CC1 (stereo not drawn) [US20230399319, Example 2-249] | 30 |
| Cc1ccc(C(F)(F)F)cc1Nc1nc(C(=O)NS(=O)(=O)N(C)CCc2ccccn2)co1 [US20230399319, Example 2-287] | 64 |
| CN(C)S(=O)(=O)NC(=O)c1coc(Nc2cc(C(F)(F)F)ccc2C2CC2)n1 [US20230399319, Example 2-067] | 92 |
| Cc1ccc(C(F)(F)F)cc1Nc1nc(C(=O)NS(=O)(=O)N2CCC(CS(C)(=O)=O)CC2)co1 [US20230399319, Example 2-022] | 240 |
| COCCN(CCOC)S(=O)(=O)NC(=O)c1coc(Nc2cc(C(F)(F)F)ccc2C)n1 [US20230399319, Example 2-164] | 140 |
| Cc1ccc(C(F)(F)F)cc1Nc1nc(C(=O)NS(=O)(=O)N2CCC[C@H]2C(=O)N(C)C)co1 [US20230399319, Example 2-079] | 280 |
| Cc1ccc(C(C)C)cc1Nc1nc(C(=O)NS(=O)(=O)N2CCOC(CN(C)C)CC2)co1 (stereo not drawn) [US20230399319, Example 2-341] | 88 |
| CCOC[C@H]1OCCN(S(=O)(=O)NC(=O)c2coc(Nc3cc(C)c(F)cc3C)n2)C[C@@H]1OC [US20230399319, Example 3-006] | 30 |
| Cc1cc(Cl)c(C(C)C)cc1Nc1nc(C(=O)NS(=O)(=O)N2CCOCC2)co1 [US20230399319, Example 2-028] | < 30 |
| Cc1ccc(C(F)(F)F)cc1Nc1nc(C(=O)NS(=O)(=O)N(C)CC#N)co1 [US20230399319, Example 2-108] | 130 |
| COC1CCN(S(=O)(=O)NC(=O)c2coc(Nc3cc(C(F)(F)F)ccc3C)n2)C1 (stereo not drawn) [US20230399319, Example 2-199] | 160 |
| CCC1(C#N)CCCN(S(=O)(=O)NC(=O)c2coc(Nc3cc(C(F)(F)F)ccc3C)n2)CC1 (stereo not drawn) [US20230399319, Example 2-240] | 31 |
| Cc1cccc(C)c1Nc1nc(C(=O)NS(=O)(=O)N2CCCOCC2)co1 [US20230399319, Example 2-115] | 1300 |
| CC(C)c1ccc(C(F)(F)F)cc1Nc1ncc(C(=O)NS(=O)(=O)N2CCCOCC2)o1 [US20230399319, Example 2-135] | 44 |
| Cc1ccc(C(F)(F)F)cc1Nc1nc(C(=O)NS(=O)(=O)N2CCCC(c3ccccc3)C2)co1 (stereo not drawn) [US20230399319, Example 2-284] | 1400 |
| CCCS(=O)(=O)C1CCCN(S(=O)(=O)NC(=O)c2coc(Nc3cc(C(F)(F)F)ccc3C(C)C)n2)CC1 (stereo not drawn) [US20230399319, Example 2-316] | 22 |
| Cc1ccc(C(F)(F)F)cc1Nc1nc(C(=O)NS(=O)(=O)N2CCC(C#N)C2)co1 (stereo not drawn) [US20230399319, Example 2-221] | 210 |

| SMILES | IC50 [nM] |
| --- | --- |
| Cc1ccc(C(F)(F)F)cc1Nc1nc(C(=O)NS(=O)(=O)N2CCC(C)(C)C2)co1 [US20230399319, Example 2-020] | 100 |
| Cc1ccc(C(F)(F)F)cc1Nc1nc(C(=O)NS(=O)(=O)N2CCC(C)C2)co1 (stereo not drawn) [US20230399319, Example 2-019] | 70 |
| Cc1cn(C2CCC2)nc1Nc1nc(C(=O)NS(=O)(=O)N2CCCOCC2)co1 [US20230399319, Example 2-188] | 790 |
| COCC(C)CN(C)S(=O)(=O)NC(=O)c1coc(Nc2cc(C(F)(F)F)ccc2C)n1 (stereo not drawn) [US20230399319, Example 2-296] | 81 |
| Cc1ccc(C(F)(F)F)cc1Nc1nc(C(=O)NS(=O)(=O)N(C)CCC(=O)N(C)C)co1 [US20230399319, Example 2-338] | 77 |
| Cc1ccc(C(F)(F)F)cc1Nc1nc(C(=O)NS(=O)(=O)N(C)Cc2cccnc2)co1 [US20230399319, Example 2-134] | 79 |
| COC[C@@H]1CCCN1S(=O)(=O)NC(=O)c1coc(Nc2cc(C)ccc2C(C)C)n1 [US20230399319, Example 2-322] | 270 |
| Cc1cc(F)c(C(C)C)cc1Nc1nc(C(=O)NS(=O)(=O)N2CCOCC(C)(O)C2)co1 (stereo not drawn) [US20230399319, Example 2-351] | 22 |
| COCC1CCN(S(=O)(=O)NC(=O)c2coc(Nc3cc(C(F)(F)F)ccc3C)n2)C1 (stereo not drawn) [US20230399319, Example 2-307] | 69 |
| CC(C)c1ccc(C(F)(F)F)cc1Nc1nc(C(=O)NS(=O)(=O)N2CCCN(C)CC2)co1 [US20230399319, Example 2-123] | 210 |
| Cc1ccc(C(F)(F)F)cc1Nc1nc(C(=O)NS(=O)(=O)N(C)CC2CCCCC2)co1 [US20230399319, Example 2-206] | 150 |
| Cc1ccc(C(F)(F)F)cc1Nc1nc(C(=O)NS(=O)(=O)N2CCC(S(C)(=O)=O)CC2)co1 [US20230399319, Example 2-018] | 50 |
| CCOCC1CCN(S(=O)(=O)NC(=O)c2coc(Nc3cc(C)c(F)cc3C)n2)CCO1 (stereo not drawn) [US20230399319, Example 2-340] | 12 |
| Cc1ccc(C(F)(F)F)cc1Nc1nc(C(=O)NS(=O)(=O)N2CCN(S(=O)(=O)C(C)C)CC2)co1 [US20230399319, Example 2-267] | 88 |
| COC[C@@H]1CCCN1S(=O)(=O)NC(=O)c1coc(Nc2cc(C)ccc2C)n1 [US20230399319, Example 2-303] | 140 |
| Cc1ccc(C(C)(C)C)cc1Nc1nc(C(=O)NS(=O)(=O)N2CCCOCC2)co1 [US20230399319, Example 2-112] | 65 |
| Cc1cn(C(C)C)nc1Nc1nc(C(=O)NS(=O)(=O)N2CCOCC(F)(F)C2)co1 [US20230399319, Example 2-212] | 280 |
| Cc1ccc(C(F)(F)F)cc1Nc1nc(C(=O)NS(=O)(=O)N(C)Cc2cnccn2)co1 [US20230399319, Example 2-236] | 100 |
| Cc1ccc(C(F)(F)F)cc1Nc1nc(C(=O)NS(=O)(=O)N2CCCCC2C(F)F)co1 (stereo not drawn) [US20230399319, Example 2-187] | 110 |
| Cc1ccc(C(F)(F)F)cc1Nc1nc(C(=O)NS(=O)(=O)N(C)C2CC2)co1 [US20230399319, Example 2-165] | 100 |
| Cc1ccc(C(F)(F)F)cc1Nc1nc(C(=O)NS(=O)(=O)N2CCCC(F)(F)CC2)co1 [US20230399319, Example 2-234] | 50 |
